Laboratory results from ChEMBL document CHEMBL4152302, “Benzo[d]thiazole-2-carbanilides as new anti-TB chemotypes: Design, synthesis, biological evaluation, and structure-activity relationship” (Eur J Med Chem, 2018).

How the values were obtained:
[1] = system: Mycobacterium tuberculosis; experiment: Antimycobacterial activity against Mycobacterium tuberculosis H37Rv ATCC 27294 after 28 days by Two-fold serial dilution assay; assay type: functional; conditions: H37Rv ATCC 27294, 672 h
[2] = Cytotoxicity against mouse RAW264.7 cells assessed as inhibition of cell viability at 50 ug/ml after 72 hrs by MTT assay relative to control; assay type: cell-based; conditions: read-out: INH
[3] = Selectivity index, ratio of cytotoxic concentration for mouse RAW264.7 cells to MIC99 for Mycobacterium tuberculosis H37Rv ATCC 27294; assay type: toxicity; conditions: read-out: Selectivity Index

SMILES | MIC [1] | cytotoxicity at 72 h, 50 ug/ml [2] [%] | selectivity ratio [3]
COc1ccc(NC(=O)c2nc3ccccc3s2)cc1 | 22 µM | 24.6 | –
O=C(Nc1ccc(N2CCOCC2)cc1)c1nc2ccccc2s1 | 4.6 µM | 18.9 | –
CCOC(=O)c1nc2ccccc2s1 | 121 µM | – | –
O=C(Nc1ccccc1)c1nc2ccccc2s1 | 98.3 µM | – | –
CCOC(=O)c1nc2cc(Cl)ccc2s1 | 12.9 µM | – | –
CCOC(=O)c1nc2cc(C(F)(F)F)ccc2s1 | 22.7 µM | – | –
O=C(Nc1cccc(C(F)(F)F)c1)c1nc2cc(Cl)ccc2s1 | 70.1 µM | – | –
Cc1cccc(NC(=O)c2nc3cc(C(F)(F)F)ccc3s2)c1 | 4.64 µM | 34.6 | –
O=C(Nc1ccc([N+](=O)[O-])cc1)c1nc2cc(Cl)ccc2s1 | 74.9 µM | – | –
O=C(Nc1cccc(C(F)(F)F)c1)c1nc2cc(C(F)(F)F)ccc2s1 | 16 µM | 19.8 | –
COc1cccc(NC(=O)c2nc3cc(Cl)ccc3s2)c1 | 2.45 µM | 18.7 | 64
O=C(Nc1ccccc1Cl)c1nc2cc(C(F)(F)F)ccc2s1 | 70.1 µM | – | –
COc1cc(NC(=O)c2nc3ccccc3s2)cc(OC)c1OC | 2.26 µM | 30.1 | 64
COc1ccccc1NC(=O)c1nc2cc(Cl)ccc2s1 | 78.4 µM | – | –
O=C(Nc1ccc(F)cc1)c1nc2ccccc2s1 | > 91.8 µM | – | –
Cc1ccc(NC(=O)c2nc3ccccc3s2)cc1 | 46.6 µM | – | –
O=C(Nc1cccc([N+](=O)[O-])c1)c1nc2cc(C(F)(F)F)ccc2s1 | 68.1 µM | – | –
COc1ccccc1NC(=O)c1nc2cc(C(F)(F)F)ccc2s1 | 4.43 µM | 43.2 | –
O=C(Nc1cccc(F)c1)c1nc2cc(Cl)ccc2s1 | 5.09 µM | 29.1 | –
O=C(Nc1ccc(Cl)cc1)c1nc2ccccc2s1 | > 86.6 µM | – | –
O=C(Nc1ccccc1N1CCOCC1)c1nc2cc(Cl)ccc2s1 | 66.9 µM | – | –
O=C(Nc1ccccc1)c1nc2cc(Cl)ccc2s1 | 86.6 µM | – | –
O=C(Nc1ccccc1)c1nc2cc(C(F)(F)F)ccc2s1 | 77.6 µM | – | –
O=C(Nc1ccc(N2CCOCC2)c(F)c1)c1nc2cc(Cl)ccc2s1 | 31.9 µM | – | –
O=C(Nc1cccc(F)c1)c1nc2cc(C(F)(F)F)ccc2s1 | 36.7 µM | – | –
O=C(Nc1cccc(Cl)c1)c1nc2cc(Cl)ccc2s1 | 77.3 µM | – | –
COc1cccc(NC(=O)c2nc3cc(C(F)(F)F)ccc3s2)c1 | 4.43 µM | 26.8 | –

SMILES | MIC [1] | cytotoxicity at 72 h, 50 ug/ml [2] [%] | selectivity ratio [3]
O=C(Nc1ccc(N2CCOCC2)c(F)c1)c1nc2ccccc2s1 | > 70 µM | – | –
Cc1ccccc1NC(=O)c1nc2ccccc2s1 | > 93.2 µM | – | –
O=C(Nc1ccc(C(F)(F)F)cc1)c1nc2ccccc2s1 | 2.42 µM | 13.6 | 64
O=C(Nc1ccc([N+](=O)[O-])cc1)c1nc2cc(C(F)(F)F)ccc2s1 | 2.12 µM | 32.6 | 64
O=C(Nc1ccccc1N1CCOCC1)c1nc2cc(C(F)(F)F)ccc2s1 | 30.7 µM | – | –
COc1cc(NC(=O)c2nc3cc(Cl)ccc3s2)cc(OC)c1OC | 66 µM | – | –
O=C(Nc1ccc(C(F)(F)F)cc1)c1nc2cc(Cl)ccc2s1 | 4.37 µM | 41 | –
O=C(Nc1ccc(C(F)(F)F)cc1)c1nc2cc(C(F)(F)F)ccc2s1 | 64 µM | – | –
Cc1cccc(NC(=O)c2nc3cc(Cl)ccc3s2)c1 | 20.6 µM | 52.2 | –
O=C(Nc1cccc(C(F)(F)F)c1)c1nc2ccccc2s1 | 38.8 µM | – | –
Cc1ccccc1NC(=O)c1nc2cc(C(F)(F)F)ccc2s1 | 74.3 µM | – | –
O=C(Nc1ccc([N+](=O)[O-])cc1)c1nc2ccccc2s1 | 20.9 µM | 35.6 | –
COc1cccc(NC(=O)c2nc3ccccc3s2)c1 | > 87.9 µM | – | –
O=C(Nc1ccc(Br)cc1)c1nc2cc(Cl)ccc2s1 | 4.24 µM | 53.1 | –
COc1cc(NC(=O)c2nc3cc(C(F)(F)F)ccc3s2)cc(OC)c1OC | 1.89 µM | 23.4 | 64
O=C(Nc1cccc(Cl)c1)c1nc2cc(C(F)(F)F)ccc2s1 | 35 µM | – | –
O=C(Nc1ccc(Cl)cc1)c1nc2cc(Cl)ccc2s1 | 2.35 µM | 28.9 | 64
O=C(Nc1cccc(F)c1)c1nc2ccccc2s1 | 22.9 µM | 20.9 | –
O=C(Nc1ccc(N2CCOCC2)c(F)c1)c1nc2cc(C(F)(F)F)ccc2s1 | 29.4 µM | – | –
O=C(Nc1cccc(Cl)c1)c1nc2ccccc2s1 | 2.7 µM | 26.8 | 64
O=C(Nc1ccc(Cl)cc1)c1nc2cc(C(F)(F)F)ccc2s1 | 2.19 µM | 36.7 | 64
O=C(Nc1ccc(N2CCOCC2)cc1)c1nc2cc(Cl)ccc2s1 | 2.09 µM | 42.3 | 64
O=C(Nc1ccccc1C(F)(F)F)c1nc2cc(Cl)ccc2s1 | 70.1 µM | – | –
O=C(Nc1ccccc1C(F)(F)F)c1nc2cc(C(F)(F)F)ccc2s1 | 2 µM | 27.8 | 64
COc1ccc(NC(=O)c2nc3cc(Cl)ccc3s2)cc1 | 78.4 µM | – | –
Cc1ccc(NC(=O)c2nc3cc(C(F)(F)F)ccc3s2)cc1 | 4.64 µM | 47.8 | –
Cc1cc(C)c(NC(=O)c2nc3ccccc3s2)c(C)c1 | 5.26 µM | 17.9 | –

SMILES | MIC [1] | cytotoxicity at 72 h, 50 ug/ml [2] [%] | selectivity ratio [3]
O=C(Nc1cccc([N+](=O)[O-])c1)c1nc2cc(Cl)ccc2s1 | 37.5 µM | – | –
O=C(Nc1ccc(F)cc1)c1nc2cc(C(F)(F)F)ccc2s1 | 73.5 µM | – | –
O=C(Nc1ccccc1Cl)c1nc2cc(Cl)ccc2s1 | 77.3 µM | – | –
O=C(Nc1cccc([N+](=O)[O-])c1)c1nc2ccccc2s1 | 2.61 µM | 38.4 | 64
Cc1cccc(NC(=O)c2nc3ccccc3s2)c1 | > 93.2 µM | – | –
O=C(Nc1ccc(F)cc1)c1nc2cc(Cl)ccc2s1 | 5.09 µM | 34.6 | –
COc1ccccc1NC(=O)c1nc2ccccc2s1 | 11 µM | 16.7 | –
Cc1ccc(NC(=O)c2nc3cc(Cl)ccc3s2)cc1 | 5.15 µM | 22.6 | –
O=C(Nc1ccc(Br)cc1)c1nc2cc(C(F)(F)F)ccc2s1 | 62.3 µM | – | –
Cc1cc(C)c(NC(=O)c2nc3cc(Cl)ccc3s2)c(C)c1 | 75.6 µM | – | –
O=C(Nc1ccccc1N1CCOCC1)c1nc2ccccc2s1 | 36.8 µM | – | –
O=C(Nc1ccccc1F)c1nc2cc(Cl)ccc2s1 | 5.09 µM | 18.1 | –
COc1ccc(NC(=O)c2nc3cc(C(F)(F)F)ccc3s2)cc1 | 2.21 µM | 35.7 | 64
O=C(Nc1ccccc1F)c1nc2cc(C(F)(F)F)ccc2s1 | 73.5 µM | – | –
Cc1ccccc1NC(=O)c1nc2cc(Cl)ccc2s1 | 82.6 µM | – | –
O=C(Nc1ccccc1C(F)(F)F)c1nc2ccccc2s1 | 38.8 µM | – | –
O=C(Nc1ccc(Br)cc1)c1nc2ccccc2s1 | > 75 µM | – | –
Cc1cc(C)c(NC(=O)c2nc3cc(C(F)(F)F)ccc3s2)c(C)c1 | 68.6 µM | – | –
O=C(Nc1ccccc1F)c1nc2ccccc2s1 | 11.5 µM | 24.9 | –
O=C(Nc1ccc(N2CCOCC2)cc1)c1nc2cc(C(F)(F)F)ccc2s1 | 61.4 µM | – | –
O=C(Nc1ccccc1Cl)c1nc2ccccc2s1 | 5.4 µM | 24 | –
CC[C@@H](CO)NCCN[C@@H](CC)CO [ETHAMBUTOL] | 1.56 µg/mL | – | –
NNC(=O)c1ccncc1 [ISONIAZID] | 0.098 µg/mL | – | –
NC(=O)c1cnccn1 [PYRAZINAMIDE] | 6.25 µg/mL | – | –
CO[C@H]1/C=C/O[C@@]2(C)Oc3c(C)c(O)c4c(O)c(c(/C=N/N5CCN(C)CC5)c(O)c4c3C2=O)NC(=O)/C(C)=C\C=C\[C@H](C)[C@H](O)[C@@H](C)[C@@H](O)[C@@H](C)[C@H](OC(C)=O)[C@@H]1C [RIFAMPIN] | 0.197 µg/mL | – | –
